Experimental data taken from PubChem BioAssay (NCI).
Values joined by “and” are separate entries in the source; they are usually repeats but may differ in a detail not shown here. Equal entries are not always repeated.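 Grown in 96-well plates, cells were treated for 48 hours with each compound at five concentrations. Insufficient inhibition: endpoint recorded as highest concentration tested. GI50 = concentration required for 50% inhibition of growth. TGI is the concentration that stops growth completely.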

What was measured:
Test in all cases: NCI tumour cell line growth inhibition, 48 h
HOP-62 NSCLC = system: HOP-62 NSCLC
HOP-92 NSCLC = system: HOP-92 NSCLC
HCT-15 colon = system: HCT-15 colon
SK-MEL-2 melanoma = system: SK-MEL-2 melanoma
EKVX NSCLC = system: EKVX NSCLC
U251 CNS = system: U251 CNS
T-47D breast = system: T-47D breast
RPMI-8226 leukemia = system: RPMI-8226 leukemia
PC-3 prostate = system: PC-3 prostate
NCI-H226 lung = system: NCI-H226 lung
MDA-MB-435 = system: MDA-MB-435
SF-539 CNS = system: SF-539 CNS
UACC-257 melanoma = system: UACC-257 melanoma
KM12 colon = system: KM12 colon
IGROV1 ovarian = system: IGROV1 ovarian
DU-145 prostate = system: DU-145 prostate
OVCAR-5 ovarian = system: OVCAR-5 ovarian
SF-268 CNS = system: SF-268 CNS
OVCAR-4 ovarian = system: OVCAR-4 ovarian
UO-31 renal = system: UO-31 renal
SF-295 CNS = system: SF-295 CNS
HS 578T breast = system: HS 578T breast
M14 melanoma = system: M14 melanoma
CCRF-CEM leukemia = system: CCRF-CEM leukemia
TK-10 renal = system: TK-10 renal
SNB-19 CNS = system: SNB-19 CNS
NCI/ADR-RES ovarian = system: NCI/ADR-RES ovarian
SNB-75 CNS = system: SNB-75 CNS
OVCAR-3 ovarian = system: OVCAR-3 ovarian
HCT-116 colon = system: HCT-116 colon
UACC-62 melanoma = system: UACC-62 melanoma
NCI-H460 lung = system: NCI-H460 lung
SR leukemia = system: SR leukemia
RXF 393 renal = system: RXF 393 renal
NCI-H23 lung = system: NCI-H23 lung
SK-MEL-28 melanoma = system: SK-MEL-28 melanoma
A498 renal = system: A498 renal
MOLT-4 leukemia = system: MOLT-4 leukemia
BT-549 breast = system: BT-549 breast
MALME-3M melanoma = system: MALME-3M melanoma
LOX IMVI melanoma = system: LOX IMVI melanoma
ACHN renal = system: ACHN renal
MCF7 breast = system: MCF7 breast
SW-620 colon = system: SW-620 colon
786-0 renal = system: 786-0 renal
HCC-2998 colon = system: HCC-2998 colon
HL-60(TB) leukemia = system: HL-60(TB) leukemia
NCI-H522 lung = system: NCI-H522 lung
A549 NSCLC = system: A549 NSCLC
OVCAR-8 ovarian = system: OVCAR-8 ovarian
SK-MEL-5 melanoma = system: SK-MEL-5 melanoma
CAKI-1 renal = system: CAKI-1 renal
SK-OV-3 ovarian = system: SK-OV-3 ovarian
HT29 colon = system: HT29 colon
MDA-MB-231 breast = system: MDA-MB-231 breast
COLO 205 colon = system: COLO 205 colon
K-562 leukemia = system: K-562 leukemia
SN12C renal = system: SN12C renal

## Cc1ccc(C(=O)Nc2cccc(C(F)(F)F)c2)cc1Nc1nc(-c2cccnc2)nc2c1cnn2C
HOP-62 NSCLC
  GI50: 2.62 µM and 1.04 µM
  TGI: 15.2 µM and > 10 µM
HOP-92 NSCLC
  GI50: 1.31 µM and 0.534 µM
  TGI: 5.13 µM and 5.01 µM
HCT-15 colon
  GI50: 2.65 µM and 1.63 µM
  TGI: 4.94 µM
SK-MEL-2 melanoma
  GI50: 0.721 µM and 0.367 µM
  TGI: 5.03 µM and 2.07 µM
EKVX NSCLC
  GI50: 3.22 µM and 2.59 µM
  TGI: 21.3 µM and > 10 µM
U251 CNS
  GI50: 3.66 µM and 2.9 µM
  TGI: 22 µM and > 10 µM
T-47D breast
  GI50: 3.44 µM and 1.86 µM
  TGI: 16.3 µM and 8.72 µM
RPMI-8226 leukemia
  GI50: 1.63 µM
  TGI: 6.04 µM
PC-3 prostate
  GI50: 3.05 µM and 2.65 µM
  TGI: 11.1 µM and > 10 µM
NCI-H226 lung
  GI50: 2.3 µM and 1.63 µM
  TGI: 7.45 µM and 5.64 µM
MDA-MB-435
  GI50: 1.64 µM and 1.45 µM
  TGI: 4.74 µM and 4.95 µM
SF-539 CNS
  GI50: 2.59 µM and 1.22 µM
  TGI: 13.3 µM and 3.28 µM
UACC-257 melanoma
  GI50: 2.02 µM and 0.875 µM
  TGI: 8.28 µM and 4.76 µM
KM12 colon
  GI50: 2.62 µM and 0.686 µM
  TGI: 17.2 µM and 8.28 µM
IGROV1 ovarian
  GI50: 1.74 µM and 0.851 µM
  TGI: 8.71 µM and 5 µM
DU-145 prostate
  GI50: 5.5 µM and 3.09 µM
  TGI: 26.7 µM and > 10 µM
OVCAR-5 ovarian
  GI50: 1.36 µM and 0.845 µM
  TGI: 15.1 µM and > 10 µM
SF-268 CNS
  GI50: 4.01 µM and 2.91 µM
  TGI: 21.9 µM and > 10 µM
OVCAR-4 ovarian
  GI50: 4.56 µM and 2.59 µM
  TGI: 30.3 µM and > 10 µM
UO-31 renal
  GI50: 1.08 µM and 0.477 µM
  TGI: 8.99 µM and 5.11 µM
SF-295 CNS
  GI50: 2.12 µM and 1.84 µM
  TGI: 4.99 µM and 4.47 µM
HS 578T breast
  GI50: 1.94 µM and 1.41 µM
  TGI: 7.14 µM and 4.91 µM
M14 melanoma
  GI50: 1.05 µM and 0.442 µM
  TGI: 3.66 µM and 3.43 µM
CCRF-CEM leukemia
  GI50: 3.02 µM and 2.44 µM
  TGI: > 100 µM
TK-10 renal
  GI50: 5.9 µM and 2.1 µM
  TGI: 36.6 µM and 6.42 µM
SNB-19 CNS
  GI50: 4.16 µM and 3.18 µM
  TGI: 17.1 µM and > 10 µM
NCI/ADR-RES ovarian
  GI50: 2.19 µM and 1.54 µM
  TGI: 6.96 µM and 5.68 µM
SNB-75 CNS
  GI50: 2.83 µM and 2.17 µM
  TGI: 11.1 µM and 6.05 µM
OVCAR-3 ovarian
  GI50: 3.86 µM and 2.53 µM
  TGI: 17.4 µM and 7.27 µM
HCT-116 colon
  GI50: 0.917 µM and 0.377 µM
  TGI: 2.87 µM and 3.67 µM
UACC-62 melanoma
  GI50: 0.628 µM and 0.335 µM
  TGI: 5.37 µM and 4.25 µM
NCI-H460 lung
  GI50: 2.84 µM and 2.54 µM
  TGI: 12.5 µM and 7.19 µM
SR leukemia
  GI50: 0.822 µM
  TGI: 6.58 µM
RXF 393 renal
  GI50: 1.47 µM and 1.45 µM
  TGI: 4.24 µM and 3.66 µM
NCI-H23 lung
  GI50: 1.81 µM and 1.3 µM
  TGI: 12.8 µM and 9.54 µM
SK-MEL-28 melanoma
  GI50: 0.866 µM and 0.389 µM
  TGI: 7.66 µM and 3.4 µM
A498 renal
  GI50: 1.6 µM
  TGI: 5.01 µM
MOLT-4 leukemia
  GI50: 1.78 µM and 0.886 µM
  TGI: 11 µM and > 10 µM
BT-549 breast
  GI50: 4.12 µM and 2.86 µM
  TGI: 14.5 µM and 8.91 µM
MALME-3M melanoma
  GI50: 0.482 µM and 0.262 µM
  TGI: 2.77 µM and 1.5 µM
LOX IMVI melanoma
  GI50: 1.4 µM and 0.704 µM
  TGI: 3.72 µM and 2.61 µM
ACHN renal
  GI50: 2.13 µM and 1.08 µM
  TGI: 11.1 µM and 7.4 µM
MCF7 breast
  GI50: 2.42 µM and 1.98 µM
  TGI: 7.65 µM and 6.24 µM
SW-620 colon
  GI50: 1.74 µM and 1.51 µM
  TGI: 13.4 µM and > 10 µM
786-0 renal
  GI50: 2.67 µM and 1.64 µM
  TGI: 8.01 µM and 5.12 µM
HCC-2998 colon
  GI50: 1.11 µM and 0.632 µM
  TGI: 3.35 µM and 2.62 µM
HL-60(TB) leukemia
  GI50: 0.423 µM and 0.273 µM
  TGI: 3.59 µM and 3.57 µM
NCI-H522 lung
  GI50: 4.68 µM and 1.37 µM
  TGI: 27.3 µM and 5.09 µM
A549 NSCLC
  GI50: 3.2 µM and 2.11 µM
  TGI: 16.1 µM and > 10 µM
OVCAR-8 ovarian
  GI50: 3 µM and 2.34 µM
  TGI: 39.7 µM and > 10 µM
SK-MEL-5 melanoma
  GI50: 1.74 µM and 1.24 µM
  TGI: 4.06 µM and 2.96 µM
CAKI-1 renal
  GI50: 2.44 µM and 1.33 µM
  TGI: 11.8 µM and 3.35 µM
SK-OV-3 ovarian
  GI50: 4.48 µM and 3.79 µM
  TGI: 22.2 µM and > 10 µM
HT29 colon
  GI50: 1.48 µM and 0.488 µM
  TGI: 35.1 µM and 4.49 µM
MDA-MB-231 breast
  GI50: 0.769 µM and 0.348 µM
  TGI: 3.21 µM and 3.95 µM
COLO 205 colon
  GI50: 1.22 µM and 0.575 µM
  TGI: 5.79 µM and 3.65 µM
K-562 leukemia
  GI50: 0.0359 µM and 0.0309 µM
  TGI: > 100 µM
SN12C renal
  GI50: 2.45 µM and 1.7 µM
  TGI: 13.8 µM and > 10 µM
